Experimental data published in publication PMC5951806, “Rapid labelling and covalent inhibition of intracellular native proteins using ligand-directed N-acyl-N-alkyl sulfonamide” (Nature Communications, 2018).

What was measured:
Assay in all cases: TMT LC-MSMS of 11-labelled proteins
Format in all cases: cell-based
[1] = biological target: Transferrin receptor protein 1 (TFRC) (Homo sapiens, UniProt P02786)
[2] = biological target: T1, citrate synthase, mitochondrial (CS) (Homo sapiens, UniProt O75390)
T1 sequence (O75390 28-466): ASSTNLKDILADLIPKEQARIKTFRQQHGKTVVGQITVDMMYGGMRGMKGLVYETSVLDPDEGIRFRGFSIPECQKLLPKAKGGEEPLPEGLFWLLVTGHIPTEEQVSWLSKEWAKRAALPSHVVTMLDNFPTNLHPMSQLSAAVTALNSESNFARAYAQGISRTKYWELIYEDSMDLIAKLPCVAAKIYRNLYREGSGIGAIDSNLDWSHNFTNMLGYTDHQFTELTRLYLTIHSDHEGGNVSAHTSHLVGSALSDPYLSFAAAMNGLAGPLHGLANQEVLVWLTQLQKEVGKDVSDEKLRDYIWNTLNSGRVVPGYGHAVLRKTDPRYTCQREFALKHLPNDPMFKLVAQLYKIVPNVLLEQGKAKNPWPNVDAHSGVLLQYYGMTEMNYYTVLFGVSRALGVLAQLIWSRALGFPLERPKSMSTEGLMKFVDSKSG

[3] = biological target: Argininosuccinate synthase (ASS1) (Homo sapiens, UniProt P00966); conditions: sheet Merged, SKBR3 cells
[4] = biological target: ATP synthase subunit alpha, mitochondrial (ATP5A1) (Homo sapiens, UniProt P25705)
[5] = biological target: tubulin beta chain (TUBB) (Homo sapiens, UniProt P07437)
[6] = sheet Exp1, SKBR3 cells, 11 0.5 µM 3 h vs DMSO
[7] = sheet Exp1, SKBR3 cells, 11 0.5 µM 3 h vs with PU-H71 10 µM
[8] = sheet Merged, SKBR3 cells, 11 0.5 µM 3 h vs DMSO
[9] = sheet Merged, SKBR3 cells, 11 0.5 µM 3 h vs with PU-H71 10 µM

Sequence of Transferrin receptor protein 1 (TFRC) (P02786 whole entry): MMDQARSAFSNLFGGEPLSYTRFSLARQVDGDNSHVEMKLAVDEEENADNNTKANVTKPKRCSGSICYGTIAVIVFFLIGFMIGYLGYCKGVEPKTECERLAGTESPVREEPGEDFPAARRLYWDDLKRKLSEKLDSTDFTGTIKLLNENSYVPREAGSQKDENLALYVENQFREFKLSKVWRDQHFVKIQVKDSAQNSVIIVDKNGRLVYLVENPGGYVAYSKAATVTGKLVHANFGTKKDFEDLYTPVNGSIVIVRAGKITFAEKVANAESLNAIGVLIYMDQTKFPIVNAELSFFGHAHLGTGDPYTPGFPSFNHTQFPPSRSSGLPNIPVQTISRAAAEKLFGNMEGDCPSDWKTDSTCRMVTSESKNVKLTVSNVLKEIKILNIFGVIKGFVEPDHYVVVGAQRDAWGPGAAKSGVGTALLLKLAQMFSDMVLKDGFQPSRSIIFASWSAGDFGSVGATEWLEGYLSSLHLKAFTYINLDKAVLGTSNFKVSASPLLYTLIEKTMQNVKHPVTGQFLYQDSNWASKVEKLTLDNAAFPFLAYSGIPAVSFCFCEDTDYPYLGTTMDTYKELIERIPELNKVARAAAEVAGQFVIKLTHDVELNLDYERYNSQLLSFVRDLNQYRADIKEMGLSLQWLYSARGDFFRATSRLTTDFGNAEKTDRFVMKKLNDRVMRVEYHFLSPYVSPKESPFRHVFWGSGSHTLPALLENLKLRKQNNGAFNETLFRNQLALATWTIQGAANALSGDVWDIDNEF
Sequence of tubulin beta chain (TUBB) (P07437 whole entry): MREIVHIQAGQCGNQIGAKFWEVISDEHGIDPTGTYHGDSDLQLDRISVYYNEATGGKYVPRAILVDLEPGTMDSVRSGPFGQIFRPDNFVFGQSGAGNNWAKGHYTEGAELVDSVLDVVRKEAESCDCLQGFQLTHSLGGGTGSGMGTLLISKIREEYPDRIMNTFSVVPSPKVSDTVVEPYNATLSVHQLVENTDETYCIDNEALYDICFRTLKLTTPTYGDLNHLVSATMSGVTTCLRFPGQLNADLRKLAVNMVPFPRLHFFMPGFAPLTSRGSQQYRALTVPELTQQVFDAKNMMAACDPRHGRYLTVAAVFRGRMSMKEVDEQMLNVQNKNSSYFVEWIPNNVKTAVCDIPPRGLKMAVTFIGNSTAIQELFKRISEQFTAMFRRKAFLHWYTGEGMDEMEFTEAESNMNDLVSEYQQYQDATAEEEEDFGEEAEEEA
Sequence of tubulin beta chain (TUBB) (P68363 whole entry partner): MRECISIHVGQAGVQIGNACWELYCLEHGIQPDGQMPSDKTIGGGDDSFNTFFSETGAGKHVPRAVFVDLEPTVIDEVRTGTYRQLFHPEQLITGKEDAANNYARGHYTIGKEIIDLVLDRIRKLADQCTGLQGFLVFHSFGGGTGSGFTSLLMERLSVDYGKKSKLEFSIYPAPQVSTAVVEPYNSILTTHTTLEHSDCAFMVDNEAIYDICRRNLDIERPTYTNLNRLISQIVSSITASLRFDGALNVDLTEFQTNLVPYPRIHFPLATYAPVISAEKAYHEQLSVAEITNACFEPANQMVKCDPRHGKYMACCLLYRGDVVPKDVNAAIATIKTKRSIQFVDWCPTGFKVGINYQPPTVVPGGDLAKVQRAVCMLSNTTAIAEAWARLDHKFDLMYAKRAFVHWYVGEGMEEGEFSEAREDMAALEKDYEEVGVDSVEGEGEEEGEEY
Sequence of Argininosuccinate synthase (ASS1) (P00966 whole entry): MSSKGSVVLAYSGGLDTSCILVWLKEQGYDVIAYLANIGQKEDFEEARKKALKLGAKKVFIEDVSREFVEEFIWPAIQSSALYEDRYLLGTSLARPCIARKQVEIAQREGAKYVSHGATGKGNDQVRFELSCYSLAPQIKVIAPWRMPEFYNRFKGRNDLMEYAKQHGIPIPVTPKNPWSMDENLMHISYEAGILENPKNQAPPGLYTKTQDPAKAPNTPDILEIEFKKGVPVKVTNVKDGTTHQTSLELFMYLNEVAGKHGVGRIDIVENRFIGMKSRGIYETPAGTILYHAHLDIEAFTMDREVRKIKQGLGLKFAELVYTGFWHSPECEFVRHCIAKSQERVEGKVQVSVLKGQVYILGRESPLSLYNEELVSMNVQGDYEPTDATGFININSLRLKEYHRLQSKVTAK

Abundance Ratio: (11) / (DMSO) [1, 6]: 1.5 | Abundance Ratio: (11) / (11 with PU-H71) [1, 7]: 0.917 | Abundance Ratio: (11) / (11 with PU-H71) ([1]; sheet Exp2, TFRC): 1.036 | Abundance Ratio: (11) / (DMSO) ([1]; sheet Exp2, TFRC): 2.96 | Abundances (Grouped): 11 ([1]; sheet Exp2, TFRC): 95.6 | Abundances (Grouped): 11 with PU-H71 ([1]; sheet Exp2, TFRC, with PU-H71): 92.3 | Abundance Ratio: (11) / (DMSO) [1, 8]: 2.107 | Abundance Ratio: (11) / (11 with PU-H71) [1, 9]: 0.975 | Abundance Ratio: (11) / (11 with PU-H71) ([2]; sheet Exp2, CS): 0.812 | Abundance Ratio: (11) / (DMSO) ([2]; sheet Exp2, CS): 1.581 | Abundances (Grouped): 11 ([2]; sheet Exp2, CS): 26.4 | Abundances (Grouped): 11 with PU-H71 ([2]; sheet Exp2, CS, with PU-H71): 32.5 | Abundance Ratio: (11) / (DMSO) [2, 8]: 1.555 | Abundance Ratio: (11) / (11 with PU-H71) [2, 9]: 0.796 | Abundance Ratio: (11) / (DMSO) ([3]; 11 0.5 µM 3 h vs DMSO): 2.736 | Abundance Ratio: (11) / (11 with PU-H71) ([3]; 11 0.5 µM 3 h vs with PU-H71 10 µM): 0.837 | Abundance Ratio: (11) / (11 with PU-H71) ([4]; Exp3, ATP5A1): 0.84 | Abundance Ratio: (11) / (DMSO) ([4]; Exp3, ATP5A1): 3.573 | Abundances (Grouped): 11 ([4]; Exp3, ATP5A1): 381.2 | Abundances (Grouped): 11 with PU-H71 ([4]; Exp3, ATP5A1): 453.7 | Abundance Ratio: (11) / (DMSO) [4, 6]: 3.323 | Abundance Ratio: (11) / (11 with PU-H71) [4, 7]: 0.923 | Abundance Ratio: (11) / (11 with PU-H71) ([4]; sheet Exp2, ATP5A1): 0.771 | Abundance Ratio: (11) / (DMSO) ([4]; sheet Exp2, ATP5A1): 3.865 | Abundances (Grouped): 11 ([4]; sheet Exp2, ATP5A1): 390.8 | Abundances (Grouped): 11 with PU-H71 ([4]; sheet Exp2, ATP5A1): 506.9 | Abundance Ratio: (11) / (DMSO) [4, 8]: 3.663 | Abundance Ratio: (11) / (11 with PU-H71) [4, 9]: 0.771 | Abundance Ratio: (11) / (11 with PU-H71) ([5]; Exp3, TUBB): 0.804 | Abundance Ratio: (11) / (DMSO) ([5]; Exp3, TUBB): 4.633 | Abundances (Grouped): 11 ([5]; Exp3, TUBB): 127.4 | Abundances (Grouped): 11 with PU-H71 ([5]; Exp3, TUBB): 158.4 | Abundance Ratio: (11) / (DMSO) [5, 6]: 3.833 | Abundance Ratio: (11) / (11 with PU-H71) [5, 7]: 0.775 | Abundance Ratio: (11) / (11 with PU-H71) ([5]; sheet Exp2, TUBB): 0.757 | Abundance Ratio: (11) / (DMSO) ([5]; sheet Exp2, TUBB): 3.139 | Abundances (Grouped): 11 ([5]; sheet Exp2, TUBB): 115.5 | Abundances (Grouped): 11 with PU-H71 ([5]; sheet Exp2, TUBB): 152.6 | Abundance Ratio: (11) / (DMSO) [5, 8]: 3.599 | Abundance Ratio: (11) / (11 with PU-H71) [5, 9]: 0.804
SMILES: CC(=O)Oc1ccc2c(c1)Oc1cc(OC(C)=O)ccc1C21OC(=O)c2cc(C(=O)NCCOCCOCCNC(=O)CCCC(=O)N(CC#N)S(=O)(=O)c3ccc(C(=O)NCCCn4c(Sc5cc6c(cc5I)OCO6)nc5c(N)ncnc54)cc3)ccc21 [compound 11]
